Measurements from patent publication US20220289708A1, “SUBSTITUTED N-PHENYL URACILS, SALTS THEREOF AND THEIR USE AS HERBICIDAL AGENTS” (Bayer Aktiengesellschaft, priority 2019, published 2022).

What was measured:
Format in all cases: in vivo
Triticum aestivum = assay: Post-emergence crop plant compatibility; settings: application rate 5 g/ha
In short: (§1)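 Greenhouse crop plants in sandy loam sprayed at one-leaf stage (2-3 weeks after sowing) with WP or EC formulations plus 0.5% additive, 600 l/ha water, at 5 g/ha or 20 g/ha. Damage scored visually after about 3 weeks as % versus untreated controls (100% = plants dead).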

Setaria viridis [1] = assay: Post-emergence herbicidal action; settings: application rate 20 g/ha, rated visually after about 3 weeks vs untreated controls
In short: (§2)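 Percent activity, judged by eye about 3 weeks after treatment relative to untreated plants, ranges from 0% (as control) to 100% (plants dead). Foliar application at 20 g/ha and less was made at the one-leaf stage using a 600 l/ha aqueous spray containing 0.5% additive.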

Polygonum convolvulus [2] = assay: Post-emergence herbicidal action; settings: application rate 5 g/ha
In short: as §2

Viola tricolor [3] = assay: Post-emergence herbicidal action; settings: application rate 5 g/ha
In short: as §2

Stellaria media = assay: Post-emergence herbicidal action; settings: application rate 5 g/ha, rated visually after about 3 weeks vs untreated controls
In short: as §2

Avena fatua [4] = assay: Post-emergence herbicidal action; settings: application rate 20 g/ha, rated visually after about 3 weeks vs untreated controls
In short: as §2

Digitaria sanguinalis [5] = assay: Post-emergence herbicidal action; settings: rated visually after about 3 weeks vs untreated controls
In short: as §2

Hordeum murinum = assay: Post-emergence herbicidal action; settings: application rate 20 g/ha
In short: as §2

Echinochloa crus-galli [6] = assay: Post-emergence herbicidal action; settings: rated visually after about 3 weeks vs untreated controls
In short: as §2

Alopecurus myosuroides [7] = assay: Post-emergence herbicidal action; settings: application rate 5 g/ha, rated visually after about 3 weeks vs untreated controls
In short: as §2

Matricaria inodora [8] = assay: Post-emergence herbicidal action; settings: application rate 5 g/ha, rated visually after about 3 weeks vs untreated controls
In short: as §2

Lolium rigidum [9] = assay: Post-emergence herbicidal action; settings: application rate 20 g/ha, rated visually after about 3 weeks vs untreated controls
In short: as §2

Pharbitis purpurea [10] = assay: Post-emergence herbicidal action; settings: application rate 5 g/ha, rated visually after about 3 weeks vs untreated controls
In short: as §2

Amaranthus retroflexus [11] = assay: Post-emergence herbicidal action; settings: application rate 5 g/ha, rated visually after about 3 weeks vs untreated controls
In short: as §2

Veronica persica [12] = assay: Post-emergence herbicidal action; settings: application rate 5 g/ha
In short: as §2

Abutilon theophrasti [13] = assay: Post-emergence herbicidal action; settings: application rate 5 g/ha, rated visually after about 3 weeks vs untreated controls
In short: as §2

Oryza sativa = assay: Post-emergence crop plant compatibility; settings: application rate 5 g/ha
In short: as §1

Zea mays = assay: Pre-emergence crop plant compatibility; settings: application rate 20 g/ha
Description: B. Pre-Emergence Herbicidal Action and Crop Plant Compatibility
(§3) Seeds of monocotyledonous and dicotyledonous weed plants and crop plants were placed in plastic or organic planting pots and covered with soil. The compounds of the invention, formulated in the form of wettable powders (WP) or as emulsion concentrates (EC), were then applied to the surface of the covering soil as aqueous suspension or emulsion with addition of 0.5% additive at a water application rate equivalent to 600 l/ha (converted). After the treatment, the pots were placed in a greenhouse and kept under good growth conditions for the test plants. After about 3 weeks, the effect of the preparations was scored visually in comparison with untreated controls as percentages. For example, 100% activity=the plants have died, 0% activity=like control plants.
Tables B14 to B16 below show the crop plant compatibilities of selected compounds of the general formula (I) according to Tables I.1 to I.36 at an application rate corresponding to 20 g/ha, which were obtained in experiments according to the experimental procedure mentioned above. Here, the observed effects on selected crop plants are stated in comparison to the untreated controls (values in %).

Setaria viridis [14] = assay: Pre-emergence herbicidal action; settings: application rate 20 g/ha
Description: as §3, with “B. Pre-Emergence Herbicidal Action and Crop Plant Compatibility Seeds of” for “Seeds of”, “control plants. Tables B1 to B13 below show the effects of selected compounds of the general formula (I) according to Tables I.1 to I.36 on various harmful plants and at an application rate corresponding to 80 g/ha or less, which were obtained by the experimental procedure mentioned above.” for “control plants.”

Polygonum convolvulus [15] = assay: Pre-emergence herbicidal action; settings: application rate 20 g/ha
Description: as §3, with “B. Pre-Emergence Herbicidal Action and Crop Plant Compatibility Seeds of” for “Seeds of”, “control plants. Tables B1 to B13 below show the effects of selected compounds of the general formula (I) according to Tables I.1 to I.36 on various harmful plants and at an application rate corresponding to 80 g/ha or less, which were obtained by the experimental procedure mentioned above.” for “control plants.”

Viola tricolor [16] = assay: Pre-emergence herbicidal action; settings: application rate 20 g/ha
Description: as §3, with “B. Pre-Emergence Herbicidal Action and Crop Plant Compatibility Seeds of” for “Seeds of”, “control plants. Tables B1 to B13 below show the effects of selected compounds of the general formula (I) according to Tables I.1 to I.36 on various harmful plants and at an application rate corresponding to 80 g/ha or less, which were obtained by the experimental procedure mentioned above.” for “control plants.”

Avena fatua [17] = assay: Pre-emergence herbicidal action; settings: application rate 80 g/ha
Description: as §3, with “B. Pre-Emergence Herbicidal Action and Crop Plant Compatibility Seeds of” for “Seeds of”, “control plants. Tables B1 to B13 below show the effects of selected compounds of the general formula (I) according to Tables I.1 to I.36 on various harmful plants and at an application rate corresponding to 80 g/ha or less, which were obtained by the experimental procedure mentioned above.” for “control plants.”

Digitaria sanguinalis [18] = assay: Pre-emergence herbicidal action; settings: application rate 20 g/ha
Description: as §3, with “B. Pre-Emergence Herbicidal Action and Crop Plant Compatibility Seeds of” for “Seeds of”, “control plants. Tables B1 to B13 below show the effects of selected compounds of the general formula (I) according to Tables I.1 to I.36 on various harmful plants and at an application rate corresponding to 80 g/ha or less, which were obtained by the experimental procedure mentioned above.” for “control plants.”

Echinochloa crus-galli [19] = assay: Pre-emergence herbicidal action
Description: as §3, with “B. Pre-Emergence Herbicidal Action and Crop Plant Compatibility Seeds of” for “Seeds of”, “control plants. Tables B1 to B13 below show the effects of selected compounds of the general formula (I) according to Tables I.1 to I.36 on various harmful plants and at an application rate corresponding to 80 g/ha or less, which were obtained by the experimental procedure mentioned above.” for “control plants.”

Alopecurus myosuroides [20] = assay: Pre-emergence herbicidal action; settings: application rate 80 g/ha
Description: as §3, with “B. Pre-Emergence Herbicidal Action and Crop Plant Compatibility Seeds of” for “Seeds of”, “control plants. Tables B1 to B13 below show the effects of selected compounds of the general formula (I) according to Tables I.1 to I.36 on various harmful plants and at an application rate corresponding to 80 g/ha or less, which were obtained by the experimental procedure mentioned above.” for “control plants.”

Matricaria inodora [21] = assay: Pre-emergence herbicidal action; settings: application rate 20 g/ha
Description: as §3, with “B. Pre-Emergence Herbicidal Action and Crop Plant Compatibility Seeds of” for “Seeds of”, “control plants. Tables B1 to B13 below show the effects of selected compounds of the general formula (I) according to Tables I.1 to I.36 on various harmful plants and at an application rate corresponding to 80 g/ha or less, which were obtained by the experimental procedure mentioned above.” for “control plants.”

Lolium rigidum [22] = assay: Pre-emergence herbicidal action; settings: application rate 80 g/ha
Description: as §3, with “B. Pre-Emergence Herbicidal Action and Crop Plant Compatibility Seeds of” for “Seeds of”, “control plants. Tables B1 to B13 below show the effects of selected compounds of the general formula (I) according to Tables I.1 to I.36 on various harmful plants and at an application rate corresponding to 80 g/ha or less, which were obtained by the experimental procedure mentioned above.” for “control plants.”

Pharbitis purpurea [23] = assay: Pre-emergence herbicidal action; settings: application rate 20 g/ha
Description: as §3, with “B. Pre-Emergence Herbicidal Action and Crop Plant Compatibility Seeds of” for “Seeds of”, “control plants. Tables B1 to B13 below show the effects of selected compounds of the general formula (I) according to Tables I.1 to I.36 on various harmful plants and at an application rate corresponding to 80 g/ha or less, which were obtained by the experimental procedure mentioned above.” for “control plants.”

Amaranthus retroflexus [24] = assay: Pre-emergence herbicidal action; settings: application rate 20 g/ha
Description: as §3, with “B. Pre-Emergence Herbicidal Action and Crop Plant Compatibility Seeds of” for “Seeds of”, “control plants. Tables B1 to B13 below show the effects of selected compounds of the general formula (I) according to Tables I.1 to I.36 on various harmful plants and at an application rate corresponding to 80 g/ha or less, which were obtained by the experimental procedure mentioned above.” for “control plants.”

Veronica persica [25] = assay: Pre-emergence herbicidal action; settings: application rate 20 g/ha
Description: as §3, with “B. Pre-Emergence Herbicidal Action and Crop Plant Compatibility Seeds of” for “Seeds of”, “control plants. Tables B1 to B13 below show the effects of selected compounds of the general formula (I) according to Tables I.1 to I.36 on various harmful plants and at an application rate corresponding to 80 g/ha or less, which were obtained by the experimental procedure mentioned above.” for “control plants.”

Abutilon theophrasti [26] = assay: Pre-emergence herbicidal action; settings: application rate 20 g/ha
Description: as §3, with “B. Pre-Emergence Herbicidal Action and Crop Plant Compatibility Seeds of” for “Seeds of”, “control plants. Tables B1 to B13 below show the effects of selected compounds of the general formula (I) according to Tables I.1 to I.36 on various harmful plants and at an application rate corresponding to 80 g/ha or less, which were obtained by the experimental procedure mentioned above.” for “control plants.”

| Oryza sativa (efficacy in %) (Oryza sativa) [%] | Zea mays (efficacy in %) (Zea mays) [%] | SMILES | Matricaria inodora (efficacy in %) (Matricaria inodora [8]) [%] | Pharbitis purpurea (efficacy in %) (Pharbitis purpurea [10]) [%] | Amaranthus retroflexus (efficacy in %) (Amaranthus retroflexus [11]) [%] | Veronica persica (efficacy in %) (Veronica persica [12]) [%] | Abutilon theophrasti (efficacy in %) (Abutilon theophrasti [13]) [%] | Echinochloa crus-galli (efficacy in %) (Echinochloa crus-galli [6]; application rate 5 g/ha) [%] | Setaria viridis (efficacy in %) (Setaria viridis [14]) [%] | Polygonum convolvulus (efficacy in %) (Polygonum convolvulus [15]) [%] | Viola tricolor (efficacy in %) (Viola tricolor [16]) [%] | Avena fatua (efficacy in %) (Avena fatua [17]) [%] | Digitaria sanguinalis (efficacy in %) (Digitaria sanguinalis [18]) [%] | Alopecurus myosuroides (efficacy in %) (Alopecurus myosuroides [20]) [%] | Matricaria inodora (efficacy in %) (Matricaria inodora [21]) [%] | Lolium rigidum (efficacy in %) (Lolium rigidum [22]) [%] | Pharbitis purpurea (efficacy in %) (Pharbitis purpurea [23]) [%] | Amaranthus retroflexus (efficacy in %) (Amaranthus retroflexus [24]) [%] | Veronica persica (efficacy in %) (Veronica persica [25]) [%] | Abutilon theophrasti (efficacy in %) (Abutilon theophrasti [26]) [%] | other results |
| --- | --- | --- | --- | --- | --- | --- | --- | --- | --- | --- | --- | --- | --- | --- | --- | --- | --- | --- | --- | --- | --- |
| – | – | Cn1c(C(F)(F)F)cc(=O)n(-c2cc(Oc3cccnc3OCC(=O)OC3COC3)c(Cl)cc2F)c1=O [I.15-115] | 100 | 100 | 100 | 100 | 100 | – | – | – | – | – | – | – | – | – | – | – | – | – | Triticum aestivum (efficacy in %) (Triticum aestivum): 20%; Setaria viridis (efficacy in %) (Setaria viridis [1]): 100%; Polygonum convolvulus (efficacy in %) (Polygonum convolvulus [2]): 100%; Viola tricolor (efficacy in %) (Viola tricolor [3]): 100%; Stellaria media (efficacy in %) (Stellaria media): 100%; Avena fatua (efficacy in %) (Avena fatua [4]): 90%; Digitaria sanguinalis (efficacy in %) (Digitaria sanguinalis [5]; application rate 20 g/ha): 100%; Hordeum murinum (efficacy in %) (Hordeum murinum): 100%; Echinochloa crus-galli (efficacy in %) (Echinochloa crus-galli [6]; application rate 20 g/ha): 100%; Alopecurus myosuroides (efficacy in %) (Alopecurus myosuroides [7]): 80%; Lolium rigidum (efficacy in %) (Lolium rigidum [9]): 90% |
| 20 | 20 | Cn1c(C(F)(F)F)cc(=O)n(-c2cc(Oc3cccnc3OCC(=O)OCc3ccccn3)c(Cl)cc2F)c1=O [I.15-286] | 90 | 100 | 100 | 100 | 100 | 100 | 100 | 100 | 100 | 100 | 100 | 100 | 100 | 100 | 100 | 100 | 100 | 100 | Digitaria sanguinalis (efficacy in %) (Digitaria sanguinalis [5]; application rate 5 g/ha): 100%; Echinochloa crus-galli (efficacy in %) (Echinochloa crus-galli [19]; application rate 20 g/ha): 80% |
| 20 | 0 | Cn1c(C(F)(F)F)cc(=O)n(-c2cc(Oc3cccnc3OCC(=O)OCc3cccnn3)c(Cl)cc2F)c1=O [I.15-301] | – | 100 | 100 | 100 | 100 | 100 | 100 | 100 | 100 | 100 | 100 | 100 | 100 | 100 | 100 | 100 | 80 | 100 | Echinochloa crus-galli (efficacy in %) (Echinochloa crus-galli [19]; application rate 20 g/ha): 80% |
| 20 | 0 | Cn1c(C(F)(F)F)cc(=O)n(-c2cc(Oc3cccnc3OCC(=O)OCc3ccc(C(F)(F)F)nc3)c(Cl)cc2F)c1=O [I.15-350, [6-(Trifluoromethyl)pyridin-3-yl]methyl [(3-{2-chloro-4-fluoro-5-[3-methyl-2,6-dioxo-4-(trifluoromethyl)-3,6-dihydropyrimidin-1(2H)-yl]phenoxy}pyridin-2-yl)oxy]acetate] | 80 | 100 | 100 | 100 | 100 | 100 | 100 | 100 | 100 | 100 | 100 | 100 | 100 | 100 | 100 | 100 | 100 | 100 | Triticum aestivum (efficacy in %) (Triticum aestivum): 20%; Echinochloa crus-galli (efficacy in %) (Echinochloa crus-galli [19]; application rate 80 g/ha): 100% |
